Assay results taken from US5178662A, “Benzaldehyde acetal compounds, preparation process thereof, and herbicidal compositions containing the same as active ingredients” (Mitsui Toatsu Chemicals, Inc., priority 1990, dated 1993).

Legend:
[1] = system: ALS (acetolactate syntase) from pea seedlings; assay: ALS (acetolactate syntase) inhibition test, pea enzyme; assay type: biochemical; settings: 10,000 ppm (0.5 μg/0.5 ml) of compound; 1 hour at 30° C.; absorbance at 525 nm
Description: (§1) To determine the selectivity in enzyme level between crops and weeds, an ALS inhibition test was conducted using pea as a typical broadleaf crop and barnyardgrass as a representative gramineous weeds.
(§2) After seeds of pea and barnyardgrass were allowed to germinate at 25° C. for 8-14 days in a dark place, partially-purified suspensions (Suspensions A) of acetolactate syntase were separately obtained from the seedlings in accordance with the procedures described in the literature, Plant Physiology, 75, 827-831. In a test tube, 0.5 mg of one of test compounds was weighed, followed by the addition of 0.15 ml of a 20 mM K2 HPO4 solution and 0.25 ml of a reaction substrate medium which consisted of 40 mM of K2 HPO4, 40 mM of sodium pyruvate, 1 mM of TPP, 1 mM of MgCl2 and 20 μM of FAD so that 0.4 ml of a reaction solution (Solution B) was prepared. Added to 0.4 ml of Solution B was 0.1 ml of Suspension A. After the resultant mixture was shaken for 1 hour in a thermostat water bath controlled at 30° C., 50 μl of 6N sulfuric acid were added to terminate the reaction.
(§3) Next, the test tube with the reaction-terminated liquid mixture contained therein was transferred into a thermostat water bath controlled at 60° C. and was heated for 15 minutes. Thereafter, 0.5 ml of a 0.5% creatine solution and 0.5 ml of a 5% alkaline α-naphthol solution were added, and the resultant mixture was maintained at 60° C. for 15 minutes. As a result, the test solution developed a pink-to-red color. After the above operation, the absorbance of the test solution at 525 nm was measured by a spectrophotometer (Absorbance 1 of Test Compound).
(§4) Further, the absorbance (Absorbance 2 of Blank) of a solution obtained by subjecting a portion of Solution B to the above procedures without addition of any test compound and the absorbance (Absorbance 3 of sulfuric acid) of another solution obtained by subjecting another portion of Solution B to the above procedures which using 50 μl of 6N sulfuric acid as a test compound were also measured.

[2] = system: common lambsquarters; assay: Upland soil application test, common lambsquarters; assay type: in vivo; settings: Chenopodium album, 1200 h; soil application one day after seeding, 50 g ai/a, wettable powder, fresh weight on 50th day after spray; read-out: Herbicidal effects Common lambquarters
Description: (§5) Resin-made 1/1000-are pots were filled with the soil of an upland field. After they were fertilized, cotton and soybean were seeded and 3 cm soil covering was applied. In addition, amaranth, common lambs-quarters, barnyardgrass, green foxtail, large crabgrass and johnsongrass were seeded and 1 cm soil covering was applied. One day later, a wettable powder prepared from a predetermined amount of each test compound in a similar manner to the procedures described in Formulation Example 1 was diluted with water and then sprayed evenly at an application rate equal to 10 l per are onto the surface of the soil by means of a pressure-operated sprayer. The weeds and crops were allowed to grow in a green house and influence to them were observed on the 50th day after the spray. The degree of damages of each test plant and the degree of injury to each crop were determined by measuring fresh weight in each group and indicated by % calculated according to the following formula. [formula]

[3] = system: johnsongrass emerging from rhizome; assay: Application test on johnsongrass emerging from rhizome; assay type: in vivo; settings: foliar application at stage of 4-5 leaves, application rate of active ingredient 20 (unit not given), emulsion, 50th day after spray
Description: as §5
Resin-made 1/1000-are pots were filled with the soil of an upland field. After they were fertilized, rhizome of johnsongrass were transplanted to the pots and 3 cm soil covering was applied. They were allowed to grow in a green house. When each johnsongrass grew to the stage of 4-5 leaves, an emulsion formulated from a predetermined amount of each test compound in a similar manner to the procedures described in Formulation Example 11 was diluted with water and then sprayed at a predetermined application rate by means of a pressure-operated sprayer. The application rate was controlled at 5 l per are. The effect of each compound against the johnsongrass emerging from its rhizome was observed on the 50th day after the spray of the herbicides. The results are shown in Table 5 in which the herbicidal effect against johnsongrass is shown in a similar manner to Test 2.

[4] = system: Johnsongrass; assay: Upland soil application test, johnsongrass; assay type: in vivo; settings: Sorghum halepense, 1200 h; soil application one day after seeding, 50 g ai/a, wettable powder, fresh weight on 50th day after spray; read-out: Herbicidal effects Johnsongrass
Description: as §5

[5] = system: Soybean (Glycine max); assay: Upland soil application test, crop injury soybean; assay type: in vivo; settings: soil application one day after seeding, 50 g ai/a, wettable powder, fresh weight on 50th day after spray
Description: as §5

[6] = system: Crabgrass (Digitaria adscendens); assay: Upland soil application test, large crabgrass; assay type: in vivo; settings: 1200 h, soil application one day after seeding, 50 g ai/a, wettable powder, fresh weight on 50th day after spray, read-out: Herbicidal effects Crabgrass (Digitaria adscendens)
Description: as §5

[7] = system: Crabgrass (Digitaria adscendens); assay: Upland foliar application test, large crabgrass; assay type: in vivo; settings: 960 h, foliar application at stage of 2-3 leaves, 50 g ai/a, emulsion, 40th day after spray, read-out: Herbicidal effects Crabgrass (Digitaria adscendens)
Description: as §5
(§6) Resin-made 1/1000-are pots were filled with the soil of an upland field. After they were fertilized, cotton and soybean were seeded and 3 cm soil covering was applied. Five days later, amaranth, common lambsquarters, barnyardgrass, green foxtail, large crabgrass and johnsongrass were seeded and 1 cm soil covering was applied. They were allowed to grow in a green house. When each plant grew to the stage of 2-3 leaves, an emulsion formulated from a predetermined amount of each test compound in a similar manner to the procedures described in Formulation Example 11 was diluted with water and then sprayed at a predetermined application rate by means of a pressure-operated sprayer. The application rate was controlled at 5 l per are. Influence to the crops and weeds were observed on the 40th day after the spray of the herbicides. The results are shown in Table 4 in which the degree of damages of each test plant and the degree of injury to each crop are shown in a similar manner to Test 2.

[8] = system: Cotton (Gossypium indicum); assay: Upland soil application test, crop injury cotton; assay type: in vivo; settings: soil application one day after seeding, 50 g ai/a, wettable powder, fresh weight on 50th day after spray
Description: as §5

[9] = system: Barnyardgrass (Echinochloa crusgalli); assay: Upland soil application test, barnyardgrass; assay type: in vivo; settings: Echinochloa crus-galli, 1200 h; soil application one day after seeding, 50 g ai/a, wettable powder, fresh weight on 50th day after spray; read-out: Herbicidal effects Barnyardgrass (Echinochloa crusgalli)
Description: as §5

[10] = system: ALS (acetolactate syntase) from barnyardgrass seedlings; assay: ALS (acetolactate syntase) inhibition test, barnyardgrass enzyme; assay type: biochemical; settings: 10,000 ppm (0.5 μg/0.5 ml) of compound; 1 hour at 30° C.; absorbance at 525 nm
Description: as §1, §2, §3, §4

[11] = system: common lambsquarters; assay: Upland foliar application test, common lambsquarters; assay type: in vivo; settings: Chenopodium album, 960 h; foliar application at stage of 2-3 leaves, 50 g ai/a, emulsion, 40th day after spray; read-out: Herbicidal effects Common lambquarters
Description: as §6

[12] = system: Cotton (Gossypium indicum); assay: Upland foliar application test, crop injury cotton; assay type: in vivo; settings: foliar application at stage of 2-3 leaves, 50 g ai/a, emulsion, 40th day after spray
Description: as §5, §6

[13] = system: Johnsongrass; assay: Upland foliar application test, johnsongrass; assay type: in vivo; settings: Sorghum halepense, 960 h; foliar application at stage of 2-3 leaves, 50 g ai/a, emulsion, 40th day after spray; read-out: Herbicidal effects Johnsongrass
Description: as §6

[14] = system: Amaranth (Amaranthus viridis); assay: Upland soil application test, amaranth; assay type: in vivo; settings: 1200 h, soil application one day after seeding, 50 g ai/a, wettable powder, fresh weight on 50th day after spray, read-out: Herbicidal effects Amaranth (Amaranthus viridis)
Description: as §5

[15] = system: Foxtail (Setaria viridis); assay: Upland foliar application test, green foxtail; assay type: in vivo; settings: 960 h, foliar application at stage of 2-3 leaves, 50 g ai/a, emulsion, 40th day after spray, read-out: Herbicidal effects Foxtail (Setaria viridis)
Description: as §5, §6

[16] = system: Soybean (Glycine max); assay: Upland foliar application test, crop injury soybean; assay type: in vivo; settings: foliar application at stage of 2-3 leaves, 50 g ai/a, emulsion, 40th day after spray
Description: as §6

[17] = system: Barnyardgrass (Echinochloa crusgalli); assay: Upland foliar application test, barnyardgrass; assay type: in vivo; settings: Echinochloa crus-galli, 960 h; foliar application at stage of 2-3 leaves, 50 g ai/a, emulsion, 40th day after spray; read-out: Herbicidal effects Barnyardgrass (Echinochloa crusgalli)
Description: as §6

[18] = system: Amaranth (Amaranthus viridis); assay: Upland foliar application test, amaranth; assay type: in vivo; settings: 960 h, foliar application at stage of 2-3 leaves, 50 g ai/a, emulsion, 40th day after spray, read-out: Herbicidal effects Amaranth (Amaranthus viridis)
Description: as §5, §6

[19] = system: Foxtail (Setaria viridis); assay: Upland soil application test, green foxtail; assay type: in vivo; settings: 1200 h, soil application one day after seeding, 50 g ai/a, wettable powder, fresh weight on 50th day after spray, read-out: Herbicidal effects Foxtail (Setaria viridis)
Description: as §5

| SMILES | Enzymoreaction inhibition rate (%) Pea [1] | pest or weed control at 5000 g/ha [2] | Herbicidal effect against johnsongrass emerging from rhizome [3] | pest or weed control at 5000 g/ha [4] | Crop injury Soybean (Glycine max) [5] | pest or weed control at 5000 g/ha [6] | pest or weed control at 5000 g/ha [7] | Crop injury Cotton (Gossypium indicum) [8] | pest or weed control at 5000 g/ha [9] | Enzymoreaction inhibition rate (%) Barnyardgrass [10] | pest or weed control at 5000 g/ha [11] | Crop injury Cotton (Gossypium indicum) [12] | pest or weed control at 5000 g/ha [13] | pest or weed control at 5000 g/ha [14] | pest or weed control at 5000 g/ha [15] | Crop injury Soybean (Glycine max) [16] | pest or weed control at 5000 g/ha [17] | pest or weed control at 5000 g/ha [18] | pest or weed control at 5000 g/ha [19] |
| --- | --- | --- | --- | --- | --- | --- | --- | --- | --- | --- | --- | --- | --- | --- | --- | --- | --- | --- | --- |
| COC(=O)c1ccccc1Oc1nc(OC)cc(OC)n1 [Comp. Comp'd A, reference compound] | 72% | 100% | 60% | 100% | 100% | 100% | 100% | 100% | 100% | 73% | 100% | 100% | 100% | 100% | 100% | 100% | 100% | 100% | 100% |
| COc1cc(OC)nc(Oc2ccccc2C=O)n1 [Comp. Comp'd B, reference compound] | 92% | 85% | 35% | 100% | 100% | 100% | 100% | 100% | 100% | 98% | 80% | 100% | 100% | 80% | 100% | 100% | 100% | 80% | 100% |
